What was measured:
[1] = system: Chymotrypsin; test: Fixed time active-site titration of chymotrypsin with DPCF (fluoride electrode); format: biochemical; conditions: for % Active: active concentration as percentage of total mass; for F^-: pH 5.5, two hours, room temperature, mean of duplicates, blank 10.60
Protocol: (§1) Diphenylcarbamyl fluoride is a specific inactivator for both α-chymotrypsin and trypsin. […] The fixed time pseudoequilibrium can nevertheless be used for the assay of both enzymes since the number of moles of F^- released is stoichiometrically related to the active concentration of either two enzymes.
The reagent solutions were the same as described in Example 1. The assay procedure was however modified in the following manner. Into the plastic beaker, 4.8 ml of assay buffer, […] of either enzyme solution and 100 μl of DPFC solution were added. A blank was prepared in a similar manner by substituting 100 μl of a 2 mM HCl for the enzyme solution. All solutions were left at room temperature for two hours. Following that the F^- concentration was then measured by the fluoride electrode. […].
The difference in the relative-rates of F^- generation with chymotrypsin solution and chymotrypsin solution with serum was used to estimate serum protease inhibitor capacity. The assay buffer and DPCF solution were prepared as described in Example 5. Chymotrypsin solution 2.0 μM corresponding to 1.46 μM active mass was prepared by dilution of stock chymotrypsin solution as described in Example 1.

[2] = system: Trypsin; test: Fixed time active-site titration of trypsin with DPCF (fluoride electrode); format: biochemical; conditions: for % Active: active concentration as percentage of total mass; for F^-: pH 5.5, two hours, room temperature, mean of duplicates, blank 10.60
Protocol: as §1
The reagent solutions were the same as described in Example 1. The assay procedure was however modified in the following manner. Into the plastic beaker, 4.8 ml of assay buffer, […] of either enzyme solution and 100 μl of DPFC solution were added. A blank was prepared in a similar manner by substituting 100 μl of a 2 mM HCl for the enzyme solution. All solutions were left at room temperature for two hours. Following that the F^- concentration was then measured by the fluoride electrode. […]

[3] = enzyme concentration 2 μM (mass)
[4] = enzyme concentration 5 μM (mass)
[5] = enzyme concentration 10 μM (mass)
[6] = mean over 2, 5 and 10 μM (mass)

Chymotrypsin
active concentration ([1]; chymotrypsin solution 2.0 μM (mass)): 1.46 µM
% Active [1, 3]: 80.0%
F^- [1, 3]: 12.20 µM
% Active [1, 4]: 72.2%
F^- [1, 4]: 14.21 µM
% Active [1, 5]: 70.4%
F^- [1, 5]: 17.64 µM
% Active Mean ± Stand. Dev. [1, 6]: 74.2 ± 4.2%

Trypsin
% Active [2, 3]: 77.5%
F^- [2, 3]: 12.12 µM
% Active [2, 4]: 69.4%
F^- [2, 4]: 14.00 µM
% Active [2, 5]: 65.7%
F^- [2, 5]: 17.12 µM
% Active Mean ± Stand. Dev. [2, 6]: 70.9 ± 4.9%

— patent US4607010A, “Analytical process and means for measuring protease inhibitor capacity of serum” (priority 1984, dated 1986)
